Results as given in paper PMC4414920 (European journal of pharmaceutical sciences : official …, 2015).
“Also recorded” adds a separate entry of the source. Like-named read-outs stand apart in the source and are kept apart here. One block for each compound: values may come before it.

Columns and labels:
[1] = cats; ref Parton et al., 2000; cited from earlier work
P450 2C19 = conditions: 50 mg/day for 14 days; in vivo mephenytoin oxidation; ref Chen et al., 2003; cited from earlier work
human liver microsomes [2] = type: in vitro ADME
[3] = dogs; ref Parton et al., 2000; cited from earlier work
[4] = test system: recombinant human P450s 2C8, 2C9, 2C19, 2D6, 2E1, and 3A4; conditions: recombinant enzyme
[5] = humans; ref Trnavsky and Zachar, 1975; cited from earlier work
[6] = various animals; ref Trnavsky and Zachar, 1975; cited from earlier work
human liver microsomes [7] = type: in vitro ADME; conditions: 100 μM desferrioxamine, Chelex 100-treated buffers, 0.5 nmol microsomal P450, 30 minutes
[8] = humans; ref Hutt et al., 1986; cited from earlier work
[9] = fluorescence detection, aspirin after deacetylation

product formation (2,3-DHBA or 2,5-DHBA) in the absence of NADPH (human liver microsomes [2]): No product formation | maximum rate of 5-hydroxylation compared with salicylic acid (human liver microsomes [2]; data not shown): approximately five times lower | 2,5-DHBA formation with NADPH (human liver microsomes [2]; [9]): detected | concentrations of the products with recombinant P450s [4]: too low to quantitate
Compound: CC(=O)Oc1ccccc1C(=O)O [Aspirin, acetylsalicylic acid]
half-life [1]: 22 h | effect on P450 2C19 (P450 2C19): increase | half-life [3]: 7.5 h | half-life [5]: ~ 6 h | half-life [6]: 1 to 38 h

Compound: CC(=O)N(O)CCCCCNC(=O)CCC(=O)N(O)CCCCCNC(=O)CCC(=O)N(O)CCCCCN [desferrioxamine]
effect on formation of 2,3- and 2,5-DHBA (human liver microsomes [7]): did not inhibit but instead increased; also recorded: no inhibition

product formation (2,3-DHBA or 2,5-DHBA) in the absence of NADPH (human liver microsomes [2]): not detected | 2,3-DHBA formation with NADPH (human liver microsomes [2]; [9]): detected | 2,5-DHBA formation with NADPH (human liver microsomes [2]; [9]): detected
Compound: O=C(O)c1ccccc1O [salicylic acid]
directly excreted [8]: 1–31%

Compound: O=C(O)CNC(=O)c1ccccc1O [salicyluric acid]
share of the products of salicylic acid metabolism [8]: 20–65%
